Measurements published in ChEMBL document CHEMBL1201862, “PubChem BioAssay data set” (2004).
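These data come from cells grown in 96-well plates and exposed to compound for 48 hours at five concentrations. GI50 = concentration required for 50% inhibition of growth.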 The source made the active and inactive calls. Rule as the data show it: active = GI50 up to about 1.1 µM and inactive = higher.

How the values were obtained:
Experiment in all cases: NCI tumour cell line growth inhibition, 48 h
[1] = test system: HOP-62
[2] = test system: M14
[3] = test system: SK-MEL-5
[4] = test system: SF-539
[5] = test system: NCI-H226
[6] = test system: SK-MEL-2
[7] = test system: HCT-15
[8] = test system: A549
[9] = test system: NCI-H522
[10] = test system: MDA-MB-231
[11] = test system: CAKI-1
[12] = test system: SF-268
[13] = test system: T47D
[14] = test system: MDA-MB-435
[15] = test system: COLO 205
[16] = test system: IGROV-1
[17] = test system: SR
[18] = test system: OVCAR-4
[19] = test system: NCI/ADR-RES
[20] = test system: A498

Structure (SMILES) | GI50 [1] | GI50 [2] | GI50 [3] | GI50 [4] | GI50 [5] | GI50 [6] | GI50 [7] [µM] | GI50 [8] | GI50 [9] | GI50 [10] | GI50 [11] | GI50 [12] | GI50 [13] | GI50 [14] | GI50 [15] | GI50 [16] | GI50 [17] | GI50 [18] | GI50 [19] | GI50 [20]
c1ccc(-c2ccc(-c3cc4ccccc4[nH]3)cc2)cc1 | > 100 µM (inactive) | > 100 µM (inactive) | > 100 µM (inactive) | > 100 µM (inactive) | > 100 µM (inactive) | > 100 µM (inactive) | > 100 | > 100 µM (inactive) | 60.3 µM (inactive) | > 100 µM (inactive) | 61.7 µM (inactive) | > 100 µM (inactive) | > 100 µM (inactive) | > 100 µM (inactive) | > 100 µM (inactive) | > 100 µM (inactive) | > 100 µM (inactive) | > 100 µM (inactive) | > 100 µM (inactive) | 
CONC(C)=O | > 100 µM (inactive) | > 100 µM (inactive) | > 100 µM (inactive) | > 100 µM (inactive) | > 100 µM (inactive) | > 100 µM (inactive) | > 100 | > 100 µM (inactive) | > 100 µM (inactive) | > 100 µM (inactive) | > 100 µM (inactive) | > 100 µM (inactive) | > 100 µM (inactive) | > 100 µM (inactive) | > 100 µM (inactive) | > 100 µM (inactive) | > 100 µM (inactive) |  | > 100 µM (inactive) | > 100 µM (inactive)
Nc1c(C(=O)c2ccc(Cl)cc2)[nH]c(Nc2ccc(Cl)cc2)c1C(=S)Nc1ccccc1 | 5.65 µM (inactive) | 11.9 µM (inactive) |  | 5.41 µM (inactive) | 3.64 µM (inactive) | 11.7 µM (inactive) | 4.01 | 3.21 µM (inactive) | 4.83 µM (inactive) | 4.55 µM (inactive) | 6.05 µM (inactive) | 4.22 µM (inactive) | 4.11 µM (inactive) | 7.14 µM (inactive) | 4.13 µM (inactive) | 4.15 µM (inactive) | 1.92 µM (inactive) | 2.08 µM (inactive) | 2.53 µM (inactive) | 12.7 µM (inactive)
[O-][S+]1SC(=S)C2C=CC=NC21 (stereo not drawn) |  | 15.3 µM (inactive) | 18.8 µM (inactive) | 16 µM (inactive) | 22.2 µM (inactive) | 19.4 µM (inactive) | 17.3 | 19.2 µM (inactive) | 14.3 µM (inactive) | 18.7 µM (inactive) | > 100 µM (inactive) | 19.5 µM (inactive) | 18.9 µM (inactive) | > 100 µM (inactive) | 21.3 µM (inactive) | 20.1 µM (inactive) | 11.5 µM (inactive) | > 100 µM (inactive) | 20.9 µM (inactive) | 27.6 µM (inactive)
COC(=O)[C@]12CC[C@H]3CN(C(=O)OCc4ccccc4)[C@H]([C@H]31)[C@H](c1ccco1)N2 | 90.2 µM (inactive) | 38 µM (inactive) | 17 µM (inactive) | > 100 µM (inactive) | 69.7 µM (inactive) | 55.1 µM (inactive) | 23.9 | 37.2 µM (inactive) | 14.1 µM (inactive) | 82 µM (inactive) | 35.8 µM (inactive) | 57 µM (inactive) | 42.1 µM (inactive) | 19.4 µM (inactive) | 20.1 µM (inactive) | 60.4 µM (inactive) | 44.9 µM (inactive) | 0.61 µM (active) | 18.1 µM (inactive) | 0.0226 µM (active)
O=C(O)CCCc1ccc2ccc3ccccc3c2c1 | 34.8 µM (inactive) | > 100 µM (inactive) | 55.2 µM (inactive) |  | 78.2 µM (inactive) | 26.7 µM (inactive) | 51.1 | 61 µM (inactive) | 39.6 µM (inactive) | 73.1 µM (inactive) | > 100 µM (inactive) | 66.2 µM (inactive) | 52.8 µM (inactive) | > 100 µM (inactive) | 40.8 µM (inactive) | > 100 µM (inactive) | 51.9 µM (inactive) | > 100 µM (inactive) | 84.3 µM (inactive) | 73.5 µM (inactive)
COc1ccccc1-c1nc(O)c2ccccc2n1 | > 100 µM (inactive) | > 100 µM (inactive) | > 100 µM (inactive) |  | 68.1 µM (inactive) | > 100 µM (inactive) | > 100 | > 100 µM (inactive) |  | > 100 µM (inactive) | > 100 µM (inactive) | > 100 µM (inactive) | 49.9 µM (inactive) | > 100 µM (inactive) | > 100 µM (inactive) | > 100 µM (inactive) | > 100 µM (inactive) | > 100 µM (inactive) | > 100 µM (inactive) | > 100 µM (inactive)
